In patent publication US12517136B2, “Il-17F-specific capture agents, compositions, and methods of using and making” (California Institute of Technology, priority 2015, dated 2026):
Where two headings read alike, the source gives them in different places. Bridge positions count the residues as written; N and C are the ends. Square brackets hold non-standard residues; d marks the D form. Triazole bridges read from a SMILES are 1,4-linked. Peptide text beside a SMILES is read from it. * marks the point of attachment. ξ: configuration not given here. X2 = O=C(CCCC[C@@H]1SC[C@@H]2NC(=O)N[C@@H]21)NCCCOCCOCCOCCCN*; X1 = O=C(CCCCC1SC[C@H]2NC(=O)N[C@@H]12)NCCCOCCOCCOCCCN*; Biotin = O=C1N[C@H]2[C@H](CS[C@H]2CCCCC(=O)*)N1; Lys(N3) = [N-]=[N+]=NCCCC[C@H](N)C(=O)O; Thr(3ξ) = CC(O)[C@H](N)C(=O)O; AEEEA = NCCOCCOCCOCC(=O)O; Pra = C#CC[C@H](N)C(=O)O

What was measured:
[1] = tested on: full-length His-tagged IL-17F and IL-17A proteins; assay: Point ELISA (IL-17F vs. IL-17A selectivity assay); format: binding, human; conditions: figure legends FIG. 2B, 4B, 4C
Description: Point ELISA (IL-17F vs. IL-17A selectivity assay). A black 96-well NeutrAvidin Coated High Binding Capacity plate (15510, Pierce) was coated with 2 μM macrocyclic peptide ligand in TBS (pH 7.6) for 2 h at room temperature. The plate was aspirated and then washed with TBS (5×) and Wash Buffer (0.05% (v/v) Tween-20 in PBS, 1×). Full-length His-tagged IL-17F (ab167911, Abcam) and IL-17A (ab166882, Abcam) proteins were prepared at 200 and 50 nM in Wash Buffer and incubated in the designated microwells for 90 min at room temperature. Microwells were aspirated and subsequently washed with Wash Buffer (10×). To detect the bound IL-17F and IL-17A proteins, Alkaline Phosphatase (AP)-conjugated Anti-6×His Tag® antibody [HIS-1] (ab49746, Abcam) was prepared at 1:10,000 dilution and added to the microwells for 1 h at room temperature. The plate was aspirated and washed with Wash Buffer (5×). AttoPhos® AP Fluorescent Substrate System (S1000, Promega) was employed to develop the microwells. Using an excitation wavelength of 430 nm, fluorescent emission at 535 nm was recorded by Beckman Coulter DTX880 photometer.
(§1) For these assays, the full-length His-tagged IL-17F and IL-17A proteins were captured using the macrocyclic peptide ligands immobilized on a NeutrAvidin-coated plate.
Point ELISA (IL-17F vs. IL-17A selectivity assay). A black 96-well NeutrAvidin Coated High Binding Capacity plate (15510, Pierce) was coated with 2 μM macrocyclic peptide ligand in TBS (pH 7.6) for 2 h at room temperature. Biotinylated monoclonal anti-IL17F (TA319597, Origene) was coated at 4 μg/mL in TBS as a control. The plate was aspirated and then washed with TBS (5×) and Wash Buffer (0.05% (v/v) Tween-20 in PBS, 1×). Full-length His-tagged IL-17F (ab167911, Abcam) and IL-17A (ab166882, Abcam) proteins were prepared at 100 nM in Wash Buffer and incubated in the designated microwells for 90 min at room temperature. Microwells were aspirated and subsequently washed with Wash Buffer (10×). To detect the bound IL-17F and IL-17A proteins, Alkaline Phosphatase (AP)-conjugated Anti-6×His Tag® antibody [HIS-1] (ab49746, Abcam) was prepared at 1:10,000 dilution and added to the microwells for 1 h at room temperature. The plate was aspirated and washed with Wash Buffer (5×). AttoPhos® AP Fluorescent Substrate System (S1000, Promega) was employed to develop the microwells. Using an excitation wavelength of 430 nm, fluorescent emission at 535 nm was recorded by Beckman Coulter DTX880 photometer.
as §1

[2] = tested on: His-tagged IL-17F epitopes; assay: Assay to determine orientation of macrocycle binding to IL-17F Epitope1 (point ELISA); conditions: for binding to epitope scrambled N-terminal to the click handle: epitope 2 μM, no-epitope background subtracted; for binding to the His-tagged IL-17F epitopes (overall, preferred sequence): three His-tagged epitopes, 2 μM
Description: Assay to determine orientation of macrocycle binding to IL-17F Epitope1. A black 96-well NeutrAvidin Coated High Binding Capacity plate (15510, Pierce) was coated with 2 μM macrocyclic peptide ligand in TBS (pH 7.6) for 2 h at room temperature. Biotinylated monoclonal anti-IL17F (TA319597, Origene) was coated at 4 μg/mL in TBS as a control. The plate was aspirated and then washed with TBS (5×) and Wash Buffer (0.05% (v/v) Tween-20 in PBS, 1×). Chemically synthesized His-tagged IL-17F epitopes were prepared at 2 μM in Wash Buffer and incubated in the designated microwells for 90 min at room temperature. Wash Buffer without epitope was added as a control. Microwells were aspirated and subsequently washed with Wash Buffer (10×). To detect the bound IL-17F epitopes, Alkaline Phosphatase (AP)-conjugated Anti-6×His Tag® antibody [HIS-1] (ab49746, Abcam) was prepared at 1:10,000 dilution and added to the microwells for 1 h at room temperature. The plate was aspirated and washed with Wash Buffer (5×). AttoPhos® AP Fluorescent Substrate System (S1000, Promega) was employed to develop the microwells. Using an excitation wavelength of 430 nm, fluorescent emission at 535 nm was recorded by Beckman Coulter DTX880 photometer. Data are shown after subtraction of the no-epitope background.
For this experiment, the IL-17F Epitope1 was re-synthesized with a His6 assay handle and C48S substitution instead of a click handle. Two additional His-tagged IL-17F epitopes were synthesized to contain strategic scrambling of the sequences either N-terminal or C-terminal to C48S. Point ELISAs for the three His-tagged IL-17F epitopes were conducted against the immobilized macrocyclic peptide ligands.

IL-17F [3] = biological target: T1, IL-17F (Homo sapiens, UniProt Q96PD4); assay: KD of PCC macrocycles and biligands against IL-17F (FIG. 12C); format: binding
T1 sequence (Q96PD4 31-163): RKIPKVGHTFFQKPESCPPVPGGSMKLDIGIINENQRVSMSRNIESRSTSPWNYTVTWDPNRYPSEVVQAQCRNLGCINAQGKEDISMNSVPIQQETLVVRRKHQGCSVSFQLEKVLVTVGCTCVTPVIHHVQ

IL-17F [4] = biological target: T1, IL-17F; assay: Sandwich ELISA: immobilized macrocyclic peptide ligand captures full-length His-tagged IL-17F; format: binding; design: Full-length His-tagged IL-17F protein (ab167911, Abcam); purchased Abcam ab167911
Description: Sandwich ELISA. A black 96-well NeutrAvidin Coated High Binding Capacity plate (15510, Pierce) was coated with 2 μM macrocyclic peptide ligand in TBS (25 mM Tris-HCl, 150 mM NaCl, pH 7.6) for 2 h at room temperature. Biotinylated monoclonal anti-IL17F (TA319597, Origene) was coated at 4 μg/mL in TBS as a control. The plate was aspirated and then washed with TBS (5×) and Wash Buffer (0.05% (v/v) Tween-20 in PBS, 1×). Full-length His-tagged IL-17F protein (ab167911, Abcam) was serially diluted in Wash Buffer (from 800 to 0 nM) and incubated in the designated microwells for 90 min at room temperature. Microwells were aspirated and subsequently washed with Wash Buffer (10×). […] (ab49746, Abcam) was prepared at 1:10,000 dilution and added to the microwells for 1 h at room temperature. The plate was aspirated and washed with Wash Buffer (5×). AttoPhos® AP Fluorescent Substrate System (S1000, Promega) was employed to develop the microwells. Using an excitation wavelength of 430 nm, fluorescent emission at 535 nm was recorded by Beckman Coulter DTX880 photometer. Titration curves were fit using a four-parameter regression curve fitting program (Origin 8.5) to determine EC50 values.
For these assays, a dilution series of full-length His-tagged IL-17F protein was captured using the macrocyclic peptide ligands immobilized on a NeutrAvidin-coated plate.
Sandwich ELISA. […]

[5] = biological target: Plasmodium falciparum Histidine Rich Protein-2 (Pf.HRP-2) (Plasmodium falciparum, UniProt P05227); format: binding

## NCCCC[C@@H]1NC(=O)[C@H](CCCCN)NC(=O)[C@@H](NC(=O)COCCOCCOCCNC(=O)CCCC[C@@H]2SC[C@@H]3NC(=O)N[C@@H]32)Cc2cn(nn2)CCCC[C@@H](C(N)=O)NC(=O)[C@@H]2CCCN2C(=O)[C@H](Cc2c[nH]c3ccccc23)NC(=O)CNC1=O [Cy(KKGWP), Biotin-PEG3-Cy(KKGWP) (SEQ ID NO:23)] ({Biotin-AEEEA}-[Pra]KKGWP[Lys(N3)]-NH2; triazole 1-7)
[1]
  preferential binding, IL-17F vs IL-17A (in words): preferential binding to IL-17F

## NCCCC[C@@H]1NC(=O)[C@H](CCC(N)=O)NC(=O)[C@@H](N)Cc2cn(nn2)CCCC[C@@H](C(=O)NCCCOCCOCCOCCCNC(=O)CCCC[C@@H]2SC[C@@H]3NC(=O)N[C@@H]32)NC(=O)[C@@H]2CCCN2C(=O)CNC(=O)[C@H](Cc2c[nH]cn2)NC1=O [Cy(QKHGP), Cy(QKHGP) (SEQ ID NO:15)-PEG3-biotin] (H-[Pra]QKHGP[Lys(N3)]-X2; triazole 1-7)
[1]
  preferential binding, IL-17F vs IL-17A (in words): preferential binding to IL-17F
[1]; listed as QKHGP
  preferential binding, IL-17F vs IL-17A (in words): preferential binding to IL-17F or IL-17A

## C[C@@H]1NC(=O)[C@H](CCCNC(=N)N)NC(=O)[C@H](CCCNC(=N)N)NC(=O)[C@@H](N)Cc2cn(nn2)CCCC[C@@H](C(=O)NCCCOCCOCCOCCCNC(=O)CCCCC2SC[C@H]3NC(=O)N[C@@H]23)NC(=O)[C@H](CO)NC(=O)[C@H](CCC(N)=O)NC1=O (stereo partly shown) [Cy(RRAQS), Cy(RRAQS) (SEQ ID NO:10)-PEG3-biotin] (H-[Pra]RRAQS[Lys(N3)]-X1; triazole 1-7)
[1]
  preferential binding, IL-17F vs IL-17A (in words): preferential binding to IL-17F
[2]
  binding to epitope scrambled N-terminal to the click handle: Binding was destroyed
  binding to the His-tagged IL-17F epitopes (overall, preferred sequence): preferential binding to the sequence FFQKPES

## CC(O)[C@@H]1NC(=O)[C@H](C)NC(=O)[C@H](CCCNC(=N)N)NC(=O)[C@H](CCCNC(=N)N)NC(=O)[C@@H](N)Cc2cn(nn2)CCCC[C@@H](C(=O)NCCCOCCOCCOCCCNC(=O)CCCCC2SC[C@H]3NC(=O)N[C@@H]23)NC(=O)[C@H](CO)NC1=O (stereo partly shown) [Cy(RRATS), Cy(RRATS) (SEQ ID NO:9)-PEG3-biotin] (H-[Pra]RRA[Thr(3ξ)]S[Lys(N3)]-X1; triazole 1-7)
[1]
  preferential binding, IL-17F vs IL-17A (in words): preferential binding to IL-17F
[1]; listed as RRATS
  preferential binding, IL-17F vs IL-17A (in words): preferential binding to IL-17F or IL-17A
[2]
  binding to epitope scrambled N-terminal to the click handle: Binding was destroyed
  binding to the His-tagged IL-17F epitopes (overall, preferred sequence): preferential binding to the sequence FFQKPES

## CC1N[C@@H](CCCCN)C(=O)N[C@H](C(N)=O)CCCCn2cc(nn2)C[C@H](NC(=O)COCCOCCOCCNC(=O)CCCC[C@@H]2SC[C@@H]3NC(=O)N[C@@H]32)C(=O)N[C@@H](CCCNC(=N)N)C(=O)N[C@@H](CO)C(=O)N[C@@H](Cc2ccc(O)cc2)C(=O)N[C@H]1CC(N)=O (stereo partly shown) [Cy(RSYNK), Biotin-PEG3-Cy(RSYNK) (SEQ ID NO:28)]
[1]
  preferential binding, IL-17F vs IL-17A (in words): preferential binding to IL-17F
[1]; listed as RSYNK
  preferential binding, IL-17F vs IL-17A (in words): preferential binding to IL-17F or IL-17A
IL-17F [3]; read-out: KD against IL-17F
  Kd: 15 nM
IL-17F [4]; 2 μM PEG3-biotin ligand on NeutrAvidin plate, His-tagged IL-17F 800 to 0 nM
  EC50: 15 ± 5 nM
IL-17F [4]; antibody coated at 4 μg/mL
  binding affinity compared in words (ligand vs biotinylated monoclonal anti-IL17F): exceeds the binding affinity of the similarly assayed biotinylated monoclonal anti-IL17F

## C[C@@H]1NC(=O)[C@H](CCCNC(=N)N)NC(=O)[C@H](CCCNC(=N)N)NC(=O)[C@@H](NC(=O)COCCOCCOCCNC(=O)[C@@H]2CCCCn3cc(nn3)C[C@H](NC(=O)COCCOCCOCCNC(=O)CCCC[C@@H]3SC[C@@H]4NC(=O)N[C@@H]43)C(=O)N[C@@H](CCCNC(=N)N)C(=O)N[C@@H](CO)C(=O)N[C@@H](Cc3ccc(O)cc3)C(=O)N[C@@H](CC(N)=O)C(=O)N[C@@H](CCCCN)C(=O)N2)Cc2cn(nn2)CCCC[C@@H](C(N)=O)NC(=O)[C@H](CO)NC(=O)[C@H]([C@@H](C)O)NC1=O [Cy(RSYNK)-PEG3-Cy(RRATS), Biotin-PEG3-Cy(RSYNK) (SEQ ID NO:28)-PEG3-Cy(RRATS) (SEQ ID NO: 9)] ({Biotin-AEEEA}-[Pra]RSYNK[Lys(N3)][AEEEA][Pra]RRATS[Lys(N3)]-NH2; triazole 1-7, 9-15)
IL-17F [3]
  Kd: 0.25 nM
  improvement in affinity relative to the individual PCC macrocyclic ligands: > 100 fold

## C[C@@H](O)[C@@H]1NC(=O)[C@@H](N)Cc2cn(nn2)CCCC[C@@H](C(=O)NCCCOCCOCCOCCCNC(=O)CCCC[C@@H]2SC[C@@H]3NC(=O)N[C@@H]32)NC(=O)[C@@H]2CCCN2C(=O)CNC(=O)[C@H](Cc2c[nH]cn2)NC(=O)[C@H](CCCCN)NC1=O [Cy(TKHGP), Cy(TKHGP) (SEQ ID NO:16)-PEG3-biotin] (H-[Pra]TKHGP[Lys(N3)]-X2; triazole 1-7)
[1]
  preferential binding, IL-17F vs IL-17A (in words): preferential binding to IL-17F

## N=C(N)NCCC[C@@H]1NC(=O)[C@H](Cc2ccc(O)cc2)NC(=O)[C@H](Cc2ccc(O)cc2)NC(=O)[C@H](CCCCN)NC(=O)[C@H](Cc2ccc(O)cc2)NC(=O)[C@@H](N)Cc2cn(nn2)CCCC[C@@H](C(N)=O)NC1=O [Cy(YKYYR), Cy(YKYYR) (SEQ ID NO:29)] (H-[Pra]YKYYR[Lys(N3)]-NH2; triazole 1-7)
[5]
  EC50: 220 nM
